Like-named read-outs stand apart in the source and are kept apart here.
Columns and labels:
[1] = Plasma protein binding by equilibrium dialysis, mouse plasma; format: in vitro ADME, CD-1 mice; conditions: equilibrium dialysis vs PBS, 37°C, read-out: %Protein Binding ± SD (converted)
Method: (§1) Radiolabeled MBX-102 acid was prepared as a 1 mL ethanol solution at a concentration of 50 μM (1 mCi total). […] Final solvent concentrations were 1% of the total volume. Plasma was stored at −20°C. Prior to use, it was thawed and spun at approximately 2000 rpm for 5 minutes to remove any precipitated material. The pH was adjusted to pH 7.4 by careful addition of NaH2PO4. A 1 mL sample of spiked plasma was prepared by direct dilution of [^3H]-MBX-102 acid stock solution into plasma and then added to one side of an equilibrium dialysis chamber. The other chamber was filled with 1 mL of 0.01 M phosphate buffered saline (PBS). The dialysis apparatus was placed in a water bath at 37°C and rotated at 20 rpm. […] Once equilibrium was established, the contents of the cell chambers were removed and analyzed by liquid scintillation counting. The chambers were sampled in triplicate. […] The recovery percentage was found not to vary with MBX-102 acid concentration.

human serum albumin = target: T1, human serum albumin (Homo sapiens, UniProt P02768); assay: Albumin binding by surface plasmon resonance (SPR), HSA; conditions: for %Bound: converted from KD
T1 construct: purchased Sigma
T1 sequence (P02768 25-609): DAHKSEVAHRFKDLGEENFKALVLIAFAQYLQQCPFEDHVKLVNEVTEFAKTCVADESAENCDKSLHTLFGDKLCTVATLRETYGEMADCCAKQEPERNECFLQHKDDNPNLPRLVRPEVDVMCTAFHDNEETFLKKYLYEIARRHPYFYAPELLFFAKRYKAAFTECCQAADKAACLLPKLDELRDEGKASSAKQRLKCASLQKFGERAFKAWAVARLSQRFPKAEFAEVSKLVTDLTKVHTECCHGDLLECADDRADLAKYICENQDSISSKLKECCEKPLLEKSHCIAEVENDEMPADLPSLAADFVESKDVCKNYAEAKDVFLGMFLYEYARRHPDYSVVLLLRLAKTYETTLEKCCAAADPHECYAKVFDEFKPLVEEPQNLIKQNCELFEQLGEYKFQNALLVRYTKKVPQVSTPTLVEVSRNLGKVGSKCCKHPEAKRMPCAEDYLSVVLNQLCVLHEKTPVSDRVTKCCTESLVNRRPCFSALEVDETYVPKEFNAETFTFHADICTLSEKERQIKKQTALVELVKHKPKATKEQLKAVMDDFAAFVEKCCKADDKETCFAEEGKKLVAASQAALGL
Method: (§2) The characterization of the binding of MBX-102 acid against human, mouse, and rat albumin was performed using SPR-based biosensors (Biosensor Tools, Salt Lake City, Utah, USA). The assay methods used to assess the binding of MBX-102 acid to human, mouse, and rat albumins have been described previously. Briefly, each albumin was immobilized onto a CM5 sensor chip using standard amine coupling. Immobilization densities were between 10 000 and 13 000 RU. […] Each of the 16 different concentrations was tested in duplicate. […] All binding data were collected at 37°C. The binding response profile of MBX-102 acid over the three different albumin surfaces was evaluated and the binding constants for the high-affinity site were determined using a two-independent-site model. Conversion from KD to %bound was performed as previously described.

[2] = Plasma protein binding by equilibrium dialysis, human plasma; format: in vitro ADME; conditions: equilibrium dialysis vs PBS, 37°C, read-out: %Protein Binding ± SD (converted)
Method: as §1

[3] = tested on: human, mouse, or rat PPAR-γ; assay: PPAR-γ reporter gene assays comparing human, mouse and rat PPAR-γ (data not shown); format: cell-based
Method: For a pool sufficient to supply 100 wells, 6 million cells were diluted into medium for a total volume of 9 mL. The DNA-Lipofectamine 2000 mixture was prepared as per manufacturer’s instructions. For a pool sufficient to supply 100 wells, 5 μg Gal 4-Mouse PPAR-γ LBD, 5 μg pFR-Luciferase, and 500 ng Lac-z plasmids were mixed with 40 μL of Lipofectamine 2000 in Optimem medium in a total volume of 1 mL. The cell suspension was mixed with 1 mL of the DNA-Lipofectamine 2000 mixture. The mixture was plated into a 96-well plate and incubated for 4 hours at which time the transfection medium was removed and replaced with 100 μL DMEM, 10% (v/v) FBS and cultured overnight. The culture medium was then removed from the plates and replaced with 50 μL Pro293A medium. […] Measurement of luciferase and fluorescence activity was performed according to the manufacturer’s instructions. […] An 80 μL lysate aliquot was transferred to opaque white well plates and the luminescence measured. […] Each experimental condition was assessed in quadruplicate. The data were normalized for each well by dividing the luminescence measurement by the fluorescence measurement. Dose-response curves were generated and EC50 values were calculated using Prism Graphpad version 5.1.

rat serum albumin = target: T2, rat serum albumin (Rattus norvegicus, UniProt P02770); assay: Albumin binding by surface plasmon resonance (SPR), RSA
T2 construct: purchased Sigma
T2 sequence (P02770 25-608): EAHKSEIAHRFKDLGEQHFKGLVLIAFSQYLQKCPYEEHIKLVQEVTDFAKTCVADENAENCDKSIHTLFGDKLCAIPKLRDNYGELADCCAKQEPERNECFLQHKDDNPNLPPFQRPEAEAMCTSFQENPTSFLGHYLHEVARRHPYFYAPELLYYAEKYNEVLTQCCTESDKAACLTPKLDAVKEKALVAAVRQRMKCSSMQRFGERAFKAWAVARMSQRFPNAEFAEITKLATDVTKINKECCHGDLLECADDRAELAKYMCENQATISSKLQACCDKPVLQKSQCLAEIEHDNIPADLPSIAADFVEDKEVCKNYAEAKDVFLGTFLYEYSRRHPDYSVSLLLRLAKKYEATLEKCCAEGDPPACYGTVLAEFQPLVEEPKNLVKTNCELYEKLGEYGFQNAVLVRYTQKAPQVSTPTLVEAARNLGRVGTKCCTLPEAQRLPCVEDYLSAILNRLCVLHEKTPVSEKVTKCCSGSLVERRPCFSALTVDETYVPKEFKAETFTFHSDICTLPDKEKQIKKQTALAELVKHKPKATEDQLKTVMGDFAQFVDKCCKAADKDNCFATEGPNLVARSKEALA
Method: as §2

Gal 4-Mouse PPAR-γ LBD = target: T3, Gal 4-Mouse PPAR-γ LBD (Mus musculus, UniProt P37238); assay: PPAR-γ reporter gene (transactivation) assay in HEK-293T cells with serum or serum proteins; format: cell-based
T3 construct: 5 μg Gal 4-Mouse PPAR-γ LBD; expressed in transfected cells; host or cells: HEK-293T
T3 sequence (P37238 238-503 limits assumed): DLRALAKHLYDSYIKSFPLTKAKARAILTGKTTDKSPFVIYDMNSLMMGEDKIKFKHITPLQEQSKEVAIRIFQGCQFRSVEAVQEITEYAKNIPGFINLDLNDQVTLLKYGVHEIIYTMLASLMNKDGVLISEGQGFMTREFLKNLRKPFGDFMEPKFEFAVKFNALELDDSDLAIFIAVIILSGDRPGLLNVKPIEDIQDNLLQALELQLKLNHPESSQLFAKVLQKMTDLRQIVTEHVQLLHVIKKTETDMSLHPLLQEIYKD
Method: All cells were maintained at 37°C in a humidified atmosphere of 8% CO2 in air.
For a pool sufficient to supply 100 wells, 6 million cells were diluted into medium for a total volume of 9 mL. The DNA-Lipofectamine 2000 mixture was prepared as per manufacturer’s instructions. For a pool sufficient to supply 100 wells, 5 μg Gal 4-Mouse PPAR-γ LBD, 5 μg pFR-Luciferase, and 500 ng Lac-z plasmids were mixed with 40 μL of Lipofectamine 2000 in Optimem medium in a total volume of 1 mL. The cell suspension was mixed with 1 mL of the DNA-Lipofectamine 2000 mixture. The mixture was plated into a 96-well plate and incubated for 4 hours at which time the transfection medium was removed and replaced with 100 μL DMEM, 10% (v/v) FBS and cultured overnight. The culture medium was then removed from the plates and replaced with 50 μL Pro293A medium. Compounds and charcoal stripped/delipidated serum or serum albumin, or alpha-1 acid glycoprotein stock solutions were prepared at 2X final concentration in Pro293A medium and mixed together prior to addition of 50 μL to the transfected cells and incubated for an additional 24 hours. Measurement of luciferase and fluorescence activity was performed according to the manufacturer’s instructions. Briefly, after removal of media, cells were incubated for 10 minutes in 100 μL of Steady-Glo reagent. An 80 μL lysate aliquot was transferred to opaque white well plates and the luminescence measured. The 80 μL aliquot was then transferred back to the original plate. […] Each experimental condition was assessed in quadruplicate. The data were normalized for each well by dividing the luminescence measurement by the fluorescence measurement. Dose-response curves were generated and EC50 values were calculated using Prism Graphpad version 5.1.

## O=C(O)[C@H](Oc1cccc(C(F)(F)F)c1)c1ccc(Cl)cc1 (stereo in doubt) [MBX-102 acid]
[1]; CD-1, pH 7.4, MBX-102 acid 600 μM
  fraction unbound at 600 µM: 0.003
[1]; CD-1, pH 7.4, MBX-102 acid 1000 μM
  fraction unbound at 1000 µM: 0.005
[1]; CD-1, pH 7.4, MBX-102 acid 1500 μM
  fraction unbound at 1500 µM: 0.002
[1]; CD-1, pH 7.4, MBX-102 acid 2000 μM
  fraction unbound at 2000 µM: 0.005
Human serum albumin
  %Bound: > 98%
Human serum albumin; listed as MBX-102
  %Bound: 99.1%
Human serum albumin; high-affinity site, two-independent-site model, 37°C, pH 7.4
  Kd: 5.8 µM
[2]; pH 7.4, MBX-102 acid 400 μM
  fraction unbound at 400 µM: 0.002
[2]; pH 7.4, MBX-102 acid 600 μM
  fraction unbound at 600 µM: 0.002
[2]; pH 7.4, MBX-102 acid 1000 μM
  fraction unbound at 1000 µM: 0.003
[2]; pH 7.4, MBX-102 acid 2000 μM
  fraction unbound at 2000 µM: 0.002
[3]
  intrinsic differences in ability to activate human, mouse, or rat PPAR-γ: no intrinsic differences
Rat serum albumin; RSA, converted from KD
  %Bound: 98.1%
Rat serum albumin; RSA, high-affinity site, two-independent-site model, 37°C, pH 7.4
  Kd: 12.8 µM
Rat serum albumin; rat, rat serum albumin immobilized on a CM5 sensor chip, pH 7.4, RSA, converted from KD, read-out: %Bound
  fraction unbound: < 0.02
Gal 4-Mouse PPAR-γ LBD; 0% human serum albumin (Figure 3), 2–6 experiments, mean ± SD, read-out: EC50 PPAR-γ activation
  EC50: 14.4 ± 2.5 µM
Gal 4-Mouse PPAR-γ LBD; 0% serum (Figure 2), 3 experiments, mean ± SD, read-out: EC50 PPAR-γ activation
  EC50: 15.1 ± 1.9 µM
Gal 4-Mouse PPAR-γ LBD; 0.08% human serum albumin (Figure 3), 2–6 experiments, mean ± SD, read-out: EC50 PPAR-γ activation
  EC50: 44 ± 5.6 µM
Gal 4-Mouse PPAR-γ LBD; 2% (v/v) human serum (Figure 2), 3 experiments, mean ± SD, read-out: EC50 PPAR-γ activation
  EC50: 43.5 ± 6.9 µM
Gal 4-Mouse PPAR-γ LBD; 2% human serum
  fold change in mean EC50 relative to no serum: 3 fold
Gal 4-Mouse PPAR-γ LBD; 10% (v/v) human serum (Figure 2), 3 experiments, mean ± SD, read-out: EC50 PPAR-γ activation
  EC50: 288 ± 39.6 µM
Gal 4-Mouse PPAR-γ LBD; 10% human serum
  fold change in mean EC50 relative to no serum: 19 fold
Gal 4-Mouse PPAR-γ LBD; 10% human serum (Table 4, Figure 4), 3 experiments, read-out: Mean EC50 ± SD, Human
  EC50: 260 ± 16.9 µM
Gal 4-Mouse PPAR-γ LBD; 10% mouse serum (Table 4, Figure 4), 3 experiments, read-out: Mean EC50 ± SD, Mouse
  EC50: 170 µM
Gal 4-Mouse PPAR-γ LBD; 10% rat serum (Table 4, Figure 4), 3 experiments, read-out: Mean EC50 ± SD, Rat
  EC50: 196 ± 18 µM
Gal 4-Mouse PPAR-γ LBD; 20% (v/v) human serum (Figure 2), 3 experiments, mean ± SD, read-out: EC50 PPAR-γ activation
  EC50: 442 ± 29.8 µM
Gal 4-Mouse PPAR-γ LBD; 20% human serum
  fold change in mean EC50 relative to no serum: 29 fold
